# Experimental data from patent US20220273752A1, “MODULATION OF DENDRITIC CELL FUNCTION BY THE PHOSPHOLIPID MESSENGER LPA” (Cornell University, priority 2019, published 2022).
# Assays:
# Format in all cases: cell-based, murine
# [1] = test system: bone marrow derived DCs (BMDCs); assay: LPA receptor gene expression in BMDCs by RNA-seq; parameters: Lpar1 expression level / Lpar3 expression level / Lpar4 expression level / Lpar5 expression level / Lpar6 expression level: unit not given here; details: RNA-seq relative expression
# Protocol: FIG. 1 illustrates relative expression levels of genes encoding lysophosphatidic acid (LPA) receptors in the indicated murine dendritic cell (DC) populations, as determined by RNA-seq. Ovarian cancer DCs were sorted from tumor locations of mice bearing ID8-based metastatic ovarian carcinoma for 24 days.
# Relative expression levels of genes encoding LPA receptors in the indicated dendritic cell (DC) populations was determined by RNA-seq.
# FIG. 1 illustrates that murine bone marrow derived DCs (BMDCs) as well as DCs infiltrating ovarian tumors expressed significant levels of genes encoding various LPA receptors, particularly Lpar6 (see also Table 3).
# [2] = test system: dendritic cells; assay: Genome-wide transcriptional profiling of dendritic cells by RNA-seq; details: 100 μM LPA
# Protocol: RNA was obtained from LPA-treated bone marrow-derived DCs (BMDCs) and RNA sequencing was performed. The RNA-sequencing data and Ingenuity Pathway Analyses (IPA) was performed on the RNA from LPA-treated bone marrow-derived DCs (BMDCs).
# [3] = test system: bone marrow-derived dendritic cells (BMDCs); assay: Antigen presentation: OVA-pulsed BMDCs co-cultured with CFSE-labeled OT-II T cells; details: 100 μM LPA, 6 hours, then OVA 3 hours, OT-II T cell proliferation 3 days later
# Protocol: FIG. 3A-3C illustrate that LPA inhibits the antigen-presenting capacity of dendritic cells. Bone marrow-derived dendritic cells (BMDCs) were exposed to 100 μM LPA for 6 hours and then pulsed with full-length ovalbumin (OVA) for 3 hours.
# Cells were washed and co-cultured with OVA-specific OT-II T cells labeled with carboxyfluorescein succinimidyl ester (CFSE, which stains intracellular molecules, typically lysine residues). T cell proliferation was assessed by FACS 3 days later.
# FIG. 3C graphically illustrates the division index of proliferating cells as determined by FlowJo analysis. ****P<0.0001.
# [4] = test system: BMDCs; assay: RT-qPCR of type-I IFN target genes in BMDCs
# Protocol: FIG. 11A-11H illustrate that LPA downregulates type-I IFN target genes in dendritic cells. BMDCs were left untreated or incubated with LPA (100 uM) for 2 hours and 6 hours, and gene expression was determined by RT-qPCR. **P<0.001, ***P<0.0005, ****P<0.0001. FIG. 11A illustrates downregulation of Ddx58 mRNA (encoding DExD/H-box helicase 58) relative to Actb expression at 2 hours and 6 hours after LPA treatment of BMDCs. FIG. 11B illustrates downregulation of Ifit1 mRNA (encoding interferon-induced protein with tetratricopeptide repeats 1) relative to Actb expression at 2 hours and 6 hours after LPA treatment of BMDCs. FIG. 11C illustrates downregulation of Ifit2 mRNA (encoding interferon-induced protein with tetratricopeptide repeats 2) relative to Actb expression at 2 hours and 6 hours after LPA treatment of BMDCs. FIG. 11D illustrates downregulation of Isg15 mRNA (interferon-stimulated gene 15) relative to Actb expression at 2 hours and 6 hours after LPA treatment of BMDCs. FIG. 11E illustrates downregulation of Ciita mRNA (encoding a Class II Major Histocompatibility Complex Transactivator) relative to Actb expression at 2 hours and 6 hours after LPA treatment of BMDCs. FIG. 11F illustrates downregulation of Oas1a mRNA (encoding 2′-5′ oligoadenylate synthetase 1A) relative to Actb expression at 2 hours and 6 hours after LPA treatment of BMDCs. […]
substance,measurement,setting,value
lysophosphatidic acid [LPA],Lpar1 expression level,[1]; BMDC + LPA (2 hr.),8.540
same,Lpar2 expression level,[1]; BMDC + LPA (2 hr.),0.303
same,Lpar3 expression level,[1]; BMDC + LPA (2 hr.),0.300
same,Lpar4 expression level,[1]; BMDC + LPA (2 hr.),0.040
same,Lpar5 expression level,[1]; BMDC + LPA (2 hr.),1.517
same,Lpar6 expression level,[1]; BMDC + LPA (2 hr.),62.313
same,Lpar1 expression level,[1]; BMDC + LPA (6 hr.),2.240
same,Lpar2 expression level,[1]; BMDC + LPA (6 hr.),0.353
same,Lpar3 expression level,[1]; BMDC + LPA (6 hr.),0.253
same,Lpar4 expression level,[1]; BMDC + LPA (6 hr.),0.007
same,Lpar5 expression level,[1]; BMDC + LPA (6 hr.),2.837
same,Lpar6 expression level,[1]; BMDC + LPA (6 hr.),72.007
same,number of genes demonstrating severe deregulation,[2],"~4,000 genes"
same,antigen-presenting capacity of dendritic cells,[3],inhibits
same,"type-I IFN target gene expression (Ddx58, Ifit1, Ifit2, Isg15, Ciita, Oas1a, Oas1g, Oas2)","[4]; BMDCs, LPA 100 uM, 2 hours and 6 hours",decreased
same,expression of type-I IFN-related genes in BMDCs exposed to Talazoparib-treated ovarian cancer cells,[4]; coculture,prevented expression
